Assay results as given in PMC11219871, “Epigenetic-based differentiation therapy for Acute Myeloid Leukemia” (Nature Communications, 2024).
“And” between values parts separate entries of the source, which are not always exact repeats. Identical values can stand only once.

Experiments:
[1] = tested on: ML-2; test: Proteome analysis (LC-MS/MS); assay type: cell-based, human; settings: ML-2, 25% GI50, 12 h
Protocol: After cooling down, lysates were incubated at 25 °C with 10 units of DNAse (Benzonase, Merk) and sonicated for 15 min in a Bioruptor for DNA shearing. Protein concentration was determined using microBCA, using BSA as standard. […] LysC, Wako). […] Peptides (500 μg) were labeled with Thermo Scientific […] Isobaric reagents for 1 h at 25 C. […] The final mixture was desalted using a 500 mg Sep-Pak C18t cartridge (Waters) and dried prior to high pH reverse phase HPLC pre-fractionation. Labeled peptides were fractionated offline through a high pH reverse phase chromatography using an Ultimate 3000 HPLC system equipped with a sample collector. Briefly, peptides were dissolved in 1200 μL of Buffer A (10 mM NH4OH) and loaded onto a XBridge BEH130 C18 column (3.5 μm, 250 mm length and 3.5 mm ID, Waters). […] One-minute fractions (500 μL) from minute 15 to 65 were collected and neutralized with 10% formic acid. […] Pooled fractions were snap-frozen and lyophilized. LC-MS/MS was done by coupling an UltiMate 3000 RSLCnano LC system to an Orbitrap Exploris 480 mass spectrometer (Thermo Fisher Scientific). […] The mass spectrometer was operated in a data-dependent mode, with an automatic switch between MS and MS/MS scans using a top 15 method. (Intensity threshold ≥ 1e4, dynamic exclusion of 20 sec and excluding charges unassigned, +1 and ≥ +7). MS spectra were acquired from 350 to 1500 m/z with a resolution of 60,000 FMHW (200 m/z). Ion peptides were isolated using a 0.7 Th window and fragmented using higher-energy collisional dissociation (HCD) with a normalized collision energy NCE of 36. MS/MS spectra were acquired with a fixed first mass of 120 m/z and a resolution of 45,000 FMHW (200 m/z). […] For total protein analysis, raw files were processed with MaxQuant (v 2.4.9.0) using the standard settings against the same protein database. […] Briefly, proteins/sites with less than eighteen valid values were filtered out. Then, a global normalization of log2-transformed intensities across samples was performed using the LOESS function. Differential analysis was done using the empirical Bayes statistics Limma. […] The FDR was estimated to be below 2% by Benjamini-Hochberg.

[2] = tested on: UT-7; test: Differentiation assay, CD11b / annexin-V flow cytometry; assay type: cell-based; settings: UT7 cell line; replicates 1-3 (Figure 2A)
Protocol: (§1) Next, the cells were washed twice with phosphate-buffered saline (PBS) and resuspended in 1X Binding Buffer at a concentration of 1 × 10^6 cells/mL. An 8-µL aliquot of APC-CD11b (BD Pharmingen, Franklin Lakes, NJ, USA) and 1 µL of FITC annexin-V (AV) (BD Pharmingen, Franklin Lakes, NJ, USA) antibodies were added and incubated for 15 min at room temperature in the dark. Finally, after the addition of 400 µL of 1X Binding Buffer to each tube, samples were collected on a BD FACSCanto flow cytometer (Becton Dickinson, San Jose, CA, USA) and analyzed using FlowJo software.

[3] = tested on: HEL; test: as above; assay type: cell-based; settings: HEL cell line; replicates 1-3 (Figure 2A)
Protocol: as §1

[4] = tested on: OCI-AML2; test: as above; assay type: cell-based; settings: OCI-AML-2 cell line; replicates 1-3 (Figure 2A)
Protocol: as §1

[5] = tested on: KASUMI-1; test: as above; assay type: cell-based; settings: KASUMI-1 cell line; replicates 1-3 (Figure 2A);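 further: daily treatment at a GI50-based fraction of each compound's GI50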
Protocol: as §1

[6] = tested on: M-O7e; test: as above; assay type: cell-based; settings: MO7e cell line; replicates 1-3 (Figure 2A);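 further: daily treatment at a GI50-based fraction of each compound's GI50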
Protocol: as §1

[7] = tested on: primary AML patient samples; test: Differentiation assay, CD11b flow cytometry in primary samples; assay type: cell-based, human; settings: for CD11b-positive cells (%): daily 48 h
Protocol: as §1
Peripheral blood (PB) specimens were obtained from preliminarily diagnosed AML patients who had not received any treatment before specimens were collected. All patients gave informed consent for their participation in this study, which was approved by the Clinical Research Ethics Committee of Clínica Universidad de Navarra. Written informed consent was obtained from each participant. PB was mixed with an ammonium chloride-potassium (ACK) buffer lysis (0.15 mol/L NH4Cl, 10 mmol/L KHCO3, 0.1 mmol/L ethylenediaminetetraacetic acid, pH 7.2) at a 1:2 volume ratio by gentle inversion, incubated for 10 min and centrifuged at 200 g for 10 min. The cell pellet was washed twice with PBS and finally resuspended in EGM2 medium (Cambrex Bioscience, Walkersville, MD). EGM2 contains 2% fetal calf serum, hydrocortisone, heparin, antibiotics, epidermal growth factor, human fibroblast growth factor, insulin-like growth factor, vascular endothelial growth factor, and ascorbic acid. The cells were plated at 1 × 10^6 cells/mL and treated daily with 200 and 500 nM of CM-444 and CM-1758 for 48 h. Next, the differentiation assay was performed as described above.

[8] = tested on: HL-60; test: Differentiation-apoptosis assay, CD11b / annexin-V / Sytox Green / myeloid markers flow cytometry; assay type: cell-based, human; set-up: Cell viability (%): concentration or dose not given beside the values; CD11b levels: unit not given here
Method in brief: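 HL-60 cells were stained for the myeloid differentiation marker CD11b, with annexin-V and Sytox Green marking apoptosis and cell death. Cells were washed in PBS and resuspended at 1 × 10^6 cells/mL in binding buffer; marker staining of 1 million cells was for 30 min at room temperature in the dark, followed by red-cell lysis. Readout was flow cytometry.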

[9] = HL-60, 48 h treatment, replicates 1-3 (Suppl. Fig. 5A)
[10] = HL-60, daily treatment, time 0 days, replicates 1-3 (Figure 2B)
[11] = HL-60, daily treatment, time 2 days, replicates 1-3 (Figure 2B)
[12] = HL-60, daily treatment, time 4 days, replicates 1-3 (Figure 2B)
[13] = HL-60, daily treatment, time 6 days, replicates 1-3 (Figure 2B)
[14] = HL-60, daily treatment, time 8 days, replicates 1-3 (Figure 2B)

## COc1cc2nc(-c3ccc(C)o3)cc(NCC3CCN(c4ncc(C(=O)NO)cn4)CC3)c2cc1OC [CM-444, 2-[4-[[[6,7-dimethoxy-2-(5-methyl-2-furyl)-4-quinolyl]amino]methyl]-1-piperidyl]pyrimidine-5-carbohydroxamic acid]
[1]
  proteins significantly regulated, of 8342 quantified: 9.5%
[2]
  CD11b (%): 16.8% and 20.4% and 21.0%
[3]
  CD11b (%): 12.7% and 10.5% and 8.2%
[4]
  CD11b (%): 21.1% and 24.6% and 20.5%
[5]
  CD11b (%): 16.9% and 10.6% and 19.6%
[6]
  CD11b (%): 5.2% and 11.2% and 10.9%
[7]; primary AML patient sample 1 (Figure 2C)
  CD11b (%): 46.62%
[7]; primary AML patient sample 2 (Figure 2C)
  CD11b (%): 31.74%
[7]; primary AML patient sample 3 (Figure 2C)
  CD11b (%): 20.47%
[7]; primary AML patient sample 4 (Figure 2C)
  CD11b (%): 39.54%
[7]; primary AML patient sample 5 (Figure 2C)
  CD11b (%): 32.14%
[7]; primary AML patient sample 6 (Figure 2C)
  CD11b (%): 38.57%
[7]; primary AML patient sample 7 (Figure 2C)
  CD11b (%): 49.19%
[7]; primary AML patient sample 8 (Figure 2C)
  CD11b (%): 23.69%
[7]; sample AML-1, 200 nM
  CD11b-positive cells (%): 35.2%
[7]; sample AML-1, 500 nM
  CD11b-positive cells (%): 46.6%
[7]; sample AML-2, 200 nM
  CD11b-positive cells (%): 16.8%
[7]; sample AML-2, 500 nM
  CD11b-positive cells (%): 31.7%
[7]; sample AML-3, 200 nM
  CD11b-positive cells (%): 12.3%
[7]; sample AML-3, 500 nM
  CD11b-positive cells (%): 20.5%
[7]; sample AML-4, 200 nM
  CD11b-positive cells (%): 20.8%
[7]; sample AML-4, 500 nM
  CD11b-positive cells (%): 39.5%
[7]; sample AML-5, 200 nM
  CD11b-positive cells (%): 20.2%
[7]; sample AML-5, 500 nM
  CD11b-positive cells (%): 32.1%
[7]; sample AML-6, 200 nM
  CD11b-positive cells (%): 29.7%
[7]; sample AML-6, 500 nM
  CD11b-positive cells (%): 38.6%
[7]; sample AML-7, 200 nM
  CD11b-positive cells (%): 32.9%
[7]; sample AML-7, 500 nM
  CD11b-positive cells (%): 49.2%
[7]; sample AML-8, 200 nM
  CD11b-positive cells (%): 15.3%
[7]; sample AML-8, 500 nM
  CD11b-positive cells (%): 23.7%
[8]; HL-60, 270 nM CM-444 or 300 nM CM-1758 daily for 4 days, before injection
  percentage of CD11b: > 90%
[8]; HL-60, 48 h
  CD11b (%): 74.3%
  CD13 (%): 100%
  CD14 (%): 21.5%
  HLA-DR (%): 9.16%
[8]; [9]
  CD11b (%): 71.2% and 75.4% and 68.7%
  Cell viability (%): 78.5% and 72.1% and 82.5%
[8]; HL-60, after 6–8 days of treatment
  differentiation level (CD11b): ~90%
[8]; HL-60, daily 25% GI50, 48 h
  Annexin V (%) Replicate 1: 0.75%
  Annexin V (%) Replicate 2: 0.49%
  Annexin V (%) Replicate 3: 0.44%
  CD11b (%) Replicate 1: 86.24%
  CD11b (%) Replicate 2: 75.15%
  CD11b (%) Replicate 3: 76.65%
[8]; [10]
  Annexin-V (%): 0% and 4.96% and 3.21%
  CD11b (%): 13.33% and 12.5% and 10.8%
[8]; [11]
  Annexin-V (%): 6.83% and 2.49% and 5.41%
  CD11b (%): 79.45% and 76.2% and 73.9%
[8]; [12]
  Annexin-V (%): 0% and 2.98% and 3.14%
  CD11b (%): 95.2% and 93.5% and 90.4%
[8]; [13]
  Annexin-V (%): 9.4% and 2.53% and 5.87%
  CD11b (%): 93% and 97.3% and 95.8%
[8]; [14]
  Annexin-V (%): 0% and 4.09% and 6.81%
  CD11b (%): 98.61% and 98.5% and 97.1%
[8]; HL-60 cell line, replicates 1-3 (Figure 2A)
  CD11b (%): 88.3% and 85.7% and 88.0%
[8]; HL-60 treated daily for 48 h, replicates (Fig 6D)
  CD11b levels: 76.5 and 85.9 and 92.1
